The values below come from patent US11311462B2, “Adhesive monomers for dental materials” (Mitsui Chemicals, Inc., priority 2017, dated 2022).

Molecules are shown by their SMILES.

The first series in a line: Three-point bending test of cured product. Format: physicochemical. The following applies: Table 2; composition: compound 1.80 g, UDMA 2.5 g, TEGDMA 0.74 g, plus 0.5 parts by weight TPO; cured product stored in deionized water at 37° C. 24 hours. As for the experimental part:
The composition prepared as described above was packed in a 2×2×25 mm SUS mold, covered with a cover film, and then irradiated with light from a dental visible light irradiator (α Light V, manufactured by J. Morita Tokyo MFG. Corp.) for 3 minutes on each side, namely, for a total of 6 minutes on both sides to cure the composition. The cured product was stored in deionized water at 37° C. for 24 hours, and then subjected to a three-point bending test with a general-purpose tester (Precise Versatile Material Tester 210X, manufactured by INTESCO Co., Ltd.) under conditions in which the distance between supports was 20 mm and the cross head speed was 1.0 mm/min. The results of the bending test of the cured products of the compositions to be used as the dental materials are shown in Table 2.
Turning to `C=C(C)C(=O)OCCCCCCCCCCOP(=O)(O)O` [MDP, 10-methacryloyloxydecyl dihydrogen phosphate, reference compound], the “Cured product bending test result Elastic modulus” value stood at 1.7 GPa and the “Cured product bending test result Maximum stress” value stood at 85 MPa.

As for `C=C(C)C(=O)OCCNC(=O)OCC(COC(=O)NCCOC(=O)C(=C)C)OP(=O)(O)O` [Compound 2], the “Cured product bending test result Elastic modulus” value was 2.3 GPa and the “Cured product bending test result Maximum stress” value came to 102 MPa.

`C=C(C)C(=O)OCCNC(=O)OCC(COCC(COC(=O)NCCOC(=O)C(=C)C)OP(=O)(O)O)OC(=O)NCCOC(=O)C(=C)C` (stereo not drawn) [Compound 4]: the “Cured product bending test result Elastic modulus” value is on record as 2.4 GPa and the “Cured product bending test result Maximum stress” value is 102 MPa.

With `C=C(C)C(=O)OCCOCCNC(=O)OCC(COC(=O)NCCOCCOC(=O)C(=C)C)OP(=O)(O)O` [Compound 6], the “Cured product bending test result Elastic modulus” value stood at 2.0 GPa and the “Cured product bending test result Maximum stress” value came out at 89 MPa.

The series is the same for the next values; noted with them: Table 3; composition: compound 60, UDMA 30, TEGDMA 10 parts by weight, plus 0.5 parts TPO.
On to `C=C(C)C(=O)OCCCCCCCCCCOP(=O)(O)O` [MDP, 10-methacryloyloxydecyl dihydrogen phosphate, reference compound], for which the “Cured product bending test result Elastic modulus” value is 0.32 GPa and the “Cured product bending test result Maximum stress” value is 22 MPa.

On to `C=C(C)C(=O)OCCNC(=O)OCC(COC(=O)NCCOC(=O)C(=C)C)OP(=O)(O)O` [Compound 2], for which the “Cured product bending test result Elastic modulus” value is recorded as 2.2 GPa and the “Cured product bending test result Maximum stress” value amounted to 92 MPa.

For `C=C(C)C(=O)OCCNC(=O)OCC(COCC(COC(=O)NCCOC(=O)C(=C)C)OP(=O)(O)O)OC(=O)NCCOC(=O)C(=C)C` (stereo not drawn) [Compound 4], the “Cured product bending test result Elastic modulus” value stood at 2.3 GPa and the “Cured product bending test result Maximum stress” value came out at 88 MPa.

Turning to `C=C(C)C(=O)OCCOCCNC(=O)OCC(COC(=O)NCCOCCOC(=O)C(=C)C)OP(=O)(O)O` [Compound 6], the “Cured product bending test result Elastic modulus” value turned out to be 1.3 GPa and the “Cured product bending test result Maximum stress” value was 66 MPa.

Staying with this series, now noted: Table 5; filled pasty composition in parts by weight: compound 8.0, UDMA 20, TEGDMA 10, 4-META 2.0, CQ 0.2, 2-butoxyethyl 4-(dimethylamino)benzoate 0.4, glass filler 59.
For the compound `C=C(C)C(=O)OCCCCCCCCCCOP(=O)(O)O` [MDP, 10-methacryloyloxydecyl dihydrogen phosphate, reference compound], the “Cured product bending test result Elastic modulus” value was found to be 5.7 GPa.

On to `C=C(C)C(=O)OCCNC(=O)OCC(COC(=O)NCCOC(=O)C(=C)C)OP(=O)(O)O` [Compound 2], for which the “Cured product bending test result Elastic modulus” value was determined as 6.5 GPa.
